Laboratory results reported in PubChem BioAssay AID248 (DTP/NCI, 2004).
Where “and” joins values, the source holds several entries; their conditions need not be identical. Equal entries are not always repeated. Toxic doses and inconclusive results are not listed. Cut-off read from the data, not from the text of the source: active = T/C of 150% or more; inactive = T/C below 125%.

System: L1210 leukemia ip in BDF1 mice, survival T/C
Assay: NCI In Vivo Anticancer Drug Screen. Data for tumor model L1210 Leukemia (intraperitoneal) in B6D2F1 (BDF1) mice
Conditions: endpoint: mean survival time, higher = longer survival
Method in brief: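 Tumor was transplanted into mice, which were then dosed with test compound or vehicle alone. Survival was recorded for each group, and the treated figure was expressed relative to the control figure.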

[1] = dose: 100.0 mg/kg/injection, schedule: Q01DX001 (ip), vehicle: saline with Tween-80
[2] = dose: 100.0 mg/kg/injection, schedule: Q01DX009 (ip), vehicle: saline with Tween-80
[3] = dose: 100.0 mg/kg/injection, schedule: Q04DX003 (ip), vehicle: saline with Tween-80
[4] = dose: 200.0 mg/kg/injection, schedule: Q01DX001 (ip), vehicle: saline with Tween-80
[5] = dose: 200.0 mg/kg/injection, schedule: Q01DX009 (ip), vehicle: saline with Tween-80
[6] = dose: 200.0 mg/kg/injection, schedule: Q04DX003 (ip), vehicle: saline with Tween-80
[7] = dose: 400.0 mg/kg/injection, schedule: Q01DX009 (ip), vehicle: saline with Tween-80
[8] = dose: 400.0 mg/kg/injection, schedule: Q04DX003 (ip), vehicle: saline with Tween-80
[9] = dose: 50.0 mg/kg/injection, schedule: Q04DX002 (ip), vehicle: Klucel (hydroxypropylcellulose) (HPC)
[10] = dose: 100.0 mg/kg/injection, schedule: Q04DX002 (ip), vehicle: Klucel (hydroxypropylcellulose) (HPC)
[11] = dose: 25.0 mg/kg/injection, schedule: Q01DX001 (ip), vehicle: saline
[12] = dose: 100.0 mg/kg/injection, schedule: Q01DX001 (ip), vehicle: saline
[13] = dose: 200.0 mg/kg/injection, schedule: Q01DX001 (ip), vehicle: saline
[14] = dose: 400.0 mg/kg/injection, schedule: Q01DX001 (ip), vehicle: saline
[15] = dose: 100.0 mg/kg/injection, schedule: Q04DX003 (ip), vehicle: Klucel (hydroxypropylcellulose) (HPC)
[16] = dose: 200.0 mg/kg/injection, schedule: Q04DX003 (ip), vehicle: Klucel (hydroxypropylcellulose) (HPC)
[17] = dose: 400.0 mg/kg/injection, schedule: Q04DX003 (ip), vehicle: Klucel (hydroxypropylcellulose) (HPC)
[18] = dose: 100.0 mg/kg/injection, schedule: Q01DX009 (ip), vehicle: Klucel (hydroxypropylcellulose) (HPC)
[19] = dose: 200.0 mg/kg/injection, schedule: Q01DX009 (ip), vehicle: Klucel (hydroxypropylcellulose) (HPC)
[20] = dose: 400.0 mg/kg/injection, schedule: Q01DX009 (ip), vehicle: Klucel (hydroxypropylcellulose) (HPC)
[21] = dose: 200.0 mg/kg/injection, schedule: Q04DX002 (ip), vehicle: Klucel (hydroxypropylcellulose) (HPC)
[22] = dose: 400.0 mg/kg/injection, schedule: Q04DX002 (ip), vehicle: Klucel (hydroxypropylcellulose) (HPC)

Measured: T/C

COc1ccc(C)cc1NC(=S)NC(=O)/C=C/c1ccccc1
inactive: [1] 90 % of control | [2] 93 % of control and 100 % of control | dose: 100.0 mg/kg/injection, schedule: Q04DX002 (ip), vehicle: saline with Tween-80 93 % of control and 94 % of control | [3] 91 % of control | [4] 91 % of control | [5] 93 % of control and 88 % of control | dose: 200.0 mg/kg/injection, schedule: Q04DX002 (ip), vehicle: saline with Tween-80 94 % of control and 90 % of control | [6] 93 % of control | dose: 400.0 mg/kg/injection, schedule: Q01DX001 (ip), vehicle: saline with Tween-80 90 % of control | [7] 100 % of control and 103 % of control | dose: 400.0 mg/kg/injection, schedule: Q04DX002 (ip), vehicle: saline with Tween-80 97 % of control and 89 % of control | [8] 91 % of control

COC(=O)CC1(CC(=O)OC)C(=O)N(c2ccccc2)c2ccccc21
inactive: dose: 100.0 mg/kg/injection, schedule: Q01DX001 (ip), vehicle: Klucel (hydroxypropylcellulose) (HPC) 90 % of control | dose: 200.0 mg/kg/injection, schedule: Q01DX001 (ip), vehicle: Klucel (hydroxypropylcellulose) (HPC) 93 % of control | dose: 400.0 mg/kg/injection, schedule: Q01DX001 (ip), vehicle: Klucel (hydroxypropylcellulose) (HPC) 93 % of control

N#C/C(=C\c1cccn1Cc1cc2c(cc1[N+](=O)[O-])OCO2)C(N)=O
inactive: dose: 25.0 mg/kg/injection, schedule: Q04DX002 (ip), vehicle: Klucel (hydroxypropylcellulose) (HPC) 96 % of control | [9] 96 % of control | [10] 96 % of control

CC1(C)N=C(N)N=C(N)N1c1ccc(C(F)(F)F)cc1
inactive: [11] 107 % of control | dose: 50.0 mg/kg/injection, schedule: Q01DX001 (ip), vehicle: saline 117 % of control | [12] 103 % of control and 107 % of control

C(/C=C/c1ccccc1)=Nc1ccc(CCc2ccc(N=C/C=C/c3ccccc3)cc2)cc1
inactive: [3] 91 % of control | [6] 92 % of control | [8] 92 % of control

COC(=O)C12CCC1(Cl)CC2 (centres undefined)
inactive: [12] 94 % of control | [13] 95 % of control | [14] 100 % of control

Oc1cccc(C(c2ccccc2)c2ccccc2)c1
inactive: [1] 94 % of control | [4] 94 % of control

O=Cc1ccc(C=O)cc1
inactive: [3] 94 % of control | [6] 105 % of control | [8] 106 % of control

NC1C2C(CC(=O)O)OCC=C3CN4CCC1(C(=O)C(=O)O)C4CC32 (centres undefined)
inactive: dose: 0.5 mg/kg/injection, schedule: Q01DX001 (ip), vehicle: saline 101 % of control | dose: 1.0 mg/kg/injection, schedule: Q01DX001 (ip), vehicle: saline 101 % of control | dose: 2.0 mg/kg/injection, schedule: Q01DX001 (ip), vehicle: saline 102 % of control | dose: 4.0 mg/kg/injection, schedule: Q01DX001 (ip), vehicle: saline 106 % of control

O=C1/C(=C/c2ccc(O)c(O)c2)Cc2ccccc21
inactive: [15] 117 % of control | [16] 105 % of control | [17] 104 % of control

Cc1ncc(CO)c(C2NOCc3ncsc32)c1O (centres undefined)
inactive: dose: 6.25 mg/kg/injection, schedule: Q01DX009 (ip), vehicle: saline 89 % of control | dose: 6.25 mg/kg/injection, schedule: Q04DX003 (ip), vehicle: saline 102 % of control | dose: 12.5 mg/kg/injection, schedule: Q01DX001 (ip), vehicle: saline 101 % of control | dose: 12.5 mg/kg/injection, schedule: Q01DX009 (ip), vehicle: saline 97 % of control | dose: 12.5 mg/kg/injection, schedule: Q04DX003 (ip), vehicle: saline 106 % of control | [11] 102 % of control | dose: 25.0 mg/kg/injection, schedule: Q04DX003 (ip), vehicle: saline 93 % of control

O=C(O)C1CC(Br)C2CC1C(=O)O2 (centres undefined)
inactive: dose: 100.0 mg/kg/injection, schedule: Q04DX003 (ip), vehicle: saline 91 % of control | dose: 200.0 mg/kg/injection, schedule: Q04DX003 (ip), vehicle: saline 105 % of control | dose: 400.0 mg/kg/injection, schedule: Q04DX003 (ip), vehicle: saline 97 % of control

CC(C)c1cc[n+](/C(C(=S)Nc2cccc(Cl)c2)=C(/[O-])c2ccc([N+](=O)[O-])cc2)cc1
inactive: [18] 105 % of control | [19] 91 % of control | [20] 94 % of control

CCCCCCCCCSCC
inactive: [3] 102 % of control | [6] 96 % of control | [8] 102 % of control

CCCCNC(=O)Nc1ccc(N(CC)CC)cc1
inactive: [2] 101 % of control | [3] 94 % of control | [5] 88 % of control | [6] 97 % of control | [7] 90 % of control | [8] 100 % of control

O=C(O)c1cocc1C(=O)O
inactive: [10] 91 % of control | [21] 91 % of control

CCCCCCCCCCP(=O)(CCCC)CCCC
inactive: dose: 1.56 mg/kg/injection, schedule: Q01DX009 (ip), vehicle: Klucel (hydroxypropylcellulose) (HPC) 92 % of control | dose: 3.12 mg/kg/injection, schedule: Q01DX009 (ip), vehicle: Klucel (hydroxypropylcellulose) (HPC) 95 % of control | dose: 6.25 mg/kg/injection, schedule: Q01DX009 (ip), vehicle: Klucel (hydroxypropylcellulose) (HPC) 97 % of control | dose: 12.5 mg/kg/injection, schedule: Q01DX009 (ip), vehicle: Klucel (hydroxypropylcellulose) (HPC) 95 % of control | [18] 100 % of control

O=C(NCNC(=O)c1ccccc1)c1ccccc1
inactive: [15] 100 % of control | [19] 103 % of control | [16] 90 % of control | [20] 92 % of control | [17] 103 % of control

CONS(=O)c1ccc(Cl)cc1 (centres undefined)
inactive: [10] 96 % of control | [21] 92 % of control | [22] 108 % of control

Cc1nccn1-c1ccc(Cl)cc1N=Cc1ccc(N(CCCl)CCCl)cc1
inactive: [10] 98 % of control | [21] 102 % of control | [22] 102 % of control

NC(CCl)=NC1CCCCC1
inactive: dose: 25.0 mg/kg/injection, schedule: Q04DX002 (ip), vehicle: saline 106 % of control | dose: 50.0 mg/kg/injection, schedule: Q04DX002 (ip), vehicle: saline 100 % of control | dose: 100.0 mg/kg/injection, schedule: Q04DX002 (ip), vehicle: saline 110 % of control and 120 % of control

CC(O)c1cccc(NC(=O)NC(C)(C)C)c1 (centres undefined)
inactive: [18] 102 % of control | [19] 107 % of control | [20] 113 % of control

Fc1c(F)c(F)[c]([Sn]([c]2ccccc2)([c]2ccccc2)[c]2ccccc2)c(F)c1F
inactive: dose: 1.56 mg/kg/injection, schedule: Q01DX009 (ip), vehicle: saline with Tween-80 102 % of control | dose: 3.13 mg/kg/injection, schedule: Q01DX009 (ip), vehicle: saline with Tween-80 94 % of control | dose: 6.25 mg/kg/injection, schedule: Q01DX009 (ip), vehicle: saline with Tween-80 92 % of control

Cl[SiH](Cl)c1ccccc1
inactive: [12] 96 % of control | [13] 96 % of control | [14] 90 % of control

Cc1cc2c([N+](=O)[O-])c3cccnn3c2nn1
inactive: [9] 114 % of control | [10] 111 % of control | [21] 91 % of control
